Drawing on patent publication US12685726B2, “Sulfoximines as inhibitors of NaV1.8” (Gruenenthal GmbH, priority 2022, dated 2026), this text covers IC50 for 22 compounds.

The target of the assay is T1, human NaV 1.8 (Homo sapiens, UniProt Q9Y5Y9).
T1 construct: expressed in transfected cells; host or cells: HEK (recombinant cell line)
The experiment in a line: Automated whole-cell patch clamp (Qube384) voltage-clamp recordings of sodium currents in HEK-NaV1.8 cell line. In kind it is cell-based. As to conditions: read-out: Potency category (human NaV 1.8 IC50). The essentials:
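HEK cells expressing NaV1.8 with b3, whole-cell automated voltage clamp at room temperature or 19° C.; CsF-based internal, pH 7.4 external. State-dependent (−120 mV, V1/2 4 s, −10 mV test pulses) and 10/20 Hz 40-pulse protocols; ~12 min compound, vehicle-corrected, IC50 by 4-parameter logistic fit.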
A general note: Patch clamp records ionic current or voltage across a cell membrane.

pIC50: −log10 of the molar value.

T1 sequence (Q9Y5Y9 whole entry): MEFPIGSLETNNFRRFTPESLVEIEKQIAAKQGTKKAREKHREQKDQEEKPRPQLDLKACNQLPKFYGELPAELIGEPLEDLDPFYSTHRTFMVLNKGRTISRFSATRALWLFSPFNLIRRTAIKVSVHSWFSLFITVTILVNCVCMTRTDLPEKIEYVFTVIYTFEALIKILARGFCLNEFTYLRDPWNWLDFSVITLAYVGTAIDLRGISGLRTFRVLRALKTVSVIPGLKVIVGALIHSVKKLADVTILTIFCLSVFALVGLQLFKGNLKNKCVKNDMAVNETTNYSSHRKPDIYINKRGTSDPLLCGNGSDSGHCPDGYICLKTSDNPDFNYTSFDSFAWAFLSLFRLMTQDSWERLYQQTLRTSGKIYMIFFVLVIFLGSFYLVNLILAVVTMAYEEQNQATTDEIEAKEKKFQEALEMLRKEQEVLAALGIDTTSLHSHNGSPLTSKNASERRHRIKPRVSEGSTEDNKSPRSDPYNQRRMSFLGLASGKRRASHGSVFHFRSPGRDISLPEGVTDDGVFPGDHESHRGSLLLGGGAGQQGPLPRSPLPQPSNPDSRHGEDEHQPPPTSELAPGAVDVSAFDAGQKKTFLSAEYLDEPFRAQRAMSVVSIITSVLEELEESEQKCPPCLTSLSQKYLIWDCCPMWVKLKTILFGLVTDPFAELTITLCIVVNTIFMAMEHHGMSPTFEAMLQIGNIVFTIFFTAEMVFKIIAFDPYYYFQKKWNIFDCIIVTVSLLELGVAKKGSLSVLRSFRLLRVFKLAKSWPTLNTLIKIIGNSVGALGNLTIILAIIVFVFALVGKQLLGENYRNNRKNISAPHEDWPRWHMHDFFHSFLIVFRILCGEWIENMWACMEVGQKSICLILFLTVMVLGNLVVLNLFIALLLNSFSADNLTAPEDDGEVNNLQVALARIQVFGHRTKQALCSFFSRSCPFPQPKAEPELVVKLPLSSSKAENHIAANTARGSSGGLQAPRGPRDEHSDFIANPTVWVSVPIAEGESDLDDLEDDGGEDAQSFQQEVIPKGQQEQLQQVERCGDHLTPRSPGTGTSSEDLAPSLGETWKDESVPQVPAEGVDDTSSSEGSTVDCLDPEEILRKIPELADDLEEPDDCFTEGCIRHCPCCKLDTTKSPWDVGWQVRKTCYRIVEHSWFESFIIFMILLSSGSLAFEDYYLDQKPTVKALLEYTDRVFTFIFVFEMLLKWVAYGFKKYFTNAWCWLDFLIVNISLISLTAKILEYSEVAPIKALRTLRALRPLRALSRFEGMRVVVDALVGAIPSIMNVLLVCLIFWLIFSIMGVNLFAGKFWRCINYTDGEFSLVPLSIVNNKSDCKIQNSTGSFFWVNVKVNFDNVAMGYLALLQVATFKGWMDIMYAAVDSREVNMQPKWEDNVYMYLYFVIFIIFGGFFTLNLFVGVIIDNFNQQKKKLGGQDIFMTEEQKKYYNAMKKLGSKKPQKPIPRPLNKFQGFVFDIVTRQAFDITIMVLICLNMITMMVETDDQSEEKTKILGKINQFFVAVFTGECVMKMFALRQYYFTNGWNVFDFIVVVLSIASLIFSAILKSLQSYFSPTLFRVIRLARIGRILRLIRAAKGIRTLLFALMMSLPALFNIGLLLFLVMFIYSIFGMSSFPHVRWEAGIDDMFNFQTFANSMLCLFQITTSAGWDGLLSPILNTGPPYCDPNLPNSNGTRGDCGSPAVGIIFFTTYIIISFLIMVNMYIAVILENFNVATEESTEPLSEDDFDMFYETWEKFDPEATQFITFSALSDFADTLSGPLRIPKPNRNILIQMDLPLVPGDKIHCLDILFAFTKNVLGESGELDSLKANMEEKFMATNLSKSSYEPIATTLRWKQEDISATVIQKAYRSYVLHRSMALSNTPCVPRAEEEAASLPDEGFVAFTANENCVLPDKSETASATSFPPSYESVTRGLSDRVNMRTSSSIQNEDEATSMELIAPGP

Regarding `CC1(Cn2nc(C3(F)CC3)c(C(F)(F)F)c2C(=O)Nc2cc(F)cc(S(C)(=N)=O)c2)CC(F)(F)C1` (single isomer, unassigned) [Example 127a, 1-((3,3-Difluoro-1-methylcyclobutyl)methyl)-N-(3-fluoro-5-(S-methylsulfonimidoyl)phenyl)-3-(1-fluorocyclopropyl)-4-(trifluoromethyl)-1H-pyrazole-5-carboxamide], the pIC50 (in general, −log10 of the IC50, conventionally taken in molar units) is at least 7.00.
With `CC1(Cn2nc(C3(F)CC3)c(C(F)(F)F)c2C(=O)Nc2cc(F)cc(S(C)(=N)=O)c2)CC(F)(F)C1` (single isomer, unassigned) [Example 127b, 1-((3,3-Difluoro-1-methylcyclobutyl)methyl)-N-(3-fluoro-5-(S-methylsulfonimidoyl)phenyl)-3-(1-fluorocyclopropyl)-4-(trifluoromethyl)-1H-pyrazole-5-carboxamide], the pIC50 is at least 7.00.
The same measure for `CC1(Cn2nc(C3(F)CC3)c(C(F)(F)F)c2C(=O)Nc2cccc(S(=N)(=O)C(F)F)c2)CC(F)(F)C1` (single isomer, unassigned) [Example 130a, 1-((3,3-Difluoro-1-methylcyclobutyl)methyl)-N-(3-(S-(difluoromethyl)sulfonimidoyl)phenyl)-3-(1-fluorocyclopropyl)-4-(trifluoromethyl)-1H-pyrazole-5-carboxamide]: at least 7.00; for `CC1(Cn2nc(C3(F)CC3)c(C(F)(F)F)c2C(=O)Nc2cccc(S(=N)(=O)C(F)F)c2)CC(F)(F)C1` (single isomer, unassigned) [Example 130b, 1-((3,3-Difluoro-1-methylcyclobutyl)methyl)-N-(3-(S-(difluoromethyl)sulfonimidoyl)phenyl)-3-(1-fluorocyclopropyl)-4-(trifluoromethyl)-1H-pyrazole-5-carboxamide]: at least 7.00.
The same measure for `CC1(Cn2nc(C3CC3)c(C(F)(F)F)c2C(=O)Nc2ccc(F)c(S(C)(=N)=O)c2)CC(F)(F)C1` (single isomer, unassigned) [Example 132a, 3-Cyclopropyl-1-((3,3-difluoro-1-methylcyclobutyl)methyl)-N-(4-fluoro-3-(S-methylsulfonimidoyl)phenyl)-4-(trifluoromethyl)-1H-pyrazole-5-carboxamide]: at least 7.00; for `CC1(Cn2nc(C3CC3)c(C(F)(F)F)c2C(=O)Nc2ccc(F)c(S(C)(=N)=O)c2)CC(F)(F)C1` (single isomer, unassigned) [Example 132b, 3-Cyclopropyl-1-((3,3-difluoro-1-methylcyclobutyl)methyl)-N-(4-fluoro-3-(S-methylsulfonimidoyl)phenyl)-4-(trifluoromethyl)-1H-pyrazole-5-carboxamide]: at least 7.00.
For the compound `CC1(Cn2nc(C3(F)CC3)c(C(F)F)c2C(=O)Nc2ccc(F)c(S(C)(=N)=O)c2)CC(F)(F)C1` (single isomer, unassigned) [Example 133a, 1-((3,3-Difluoro-1-methylcyclobutyl)methyl)-4-(difluoromethyl)-N-(4-fluoro-3-(S-methylsulfonimidoyl)phenyl)-3-(1-fluorocyclopropyl)-1H-pyrazole-5-carboxamide], the pIC50 is at least 7.00.
Consider `CC1(Cn2nc(C3(F)CC3)c(C(F)F)c2C(=O)Nc2ccc(F)c(S(C)(=N)=O)c2)CC(F)(F)C1` (single isomer, unassigned) [Example 133b, 1-((3,3-Difluoro-1-methylcyclobutyl)methyl)-4-(difluoromethyl)-N-(4-fluoro-3-(S-methylsulfonimidoyl)phenyl)-3-(1-fluorocyclopropyl)-1H-pyrazole-5-carboxamide], for which the pIC50 was at least 7.00.
To `C[S@@](=N)(=O)c1cccc(NC(=O)c2c(C(F)(F)F)c(C3(F)CC3)nn2CC2C[C@@H]2C(F)(F)F)c1` (single isomer, unassigned) [Example 134a, 3-(1-Fluorocyclopropyl)-N-(3-(S-methylsulfonimidoyl)phenyl)-4-(trifluoromethyl)-1-(((trans)-2-(trifluoromethyl)cyclopropyl)methyl)-1H-pyrazole-5-carboxamide] belongs at least 7.00; to `C[S@](=N)(=O)c1cccc(NC(=O)c2c(C(F)(F)F)c(C3(F)CC3)nn2CC2C[C@@H]2C(F)(F)F)c1` (single isomer, unassigned) [Example 134b, 3-(1-Fluorocyclopropyl)-N-(3-(S-methylsulfonimidoyl)phenyl)-4-(trifluoromethyl)-1-(((trans)-2-(trifluoromethyl)cyclopropyl)methyl)-1H-pyrazole-5-carboxamide], at least 7.00.
The same measure for `C[S@@](=N)(=O)c1cccc(NC(=O)c2c(C(F)(F)F)c(C3(F)CC3)nn2CC2C[C@H]2C(F)(F)F)c1` (single isomer, unassigned) [Example 134c, 3-(1-Fluorocyclopropyl)-N-(3-(S-methylsulfonimidoyl)phenyl)-4-(trifluoromethyl)-1-(((trans)-2-(trifluoromethyl)cyclopropyl)methyl)-1H-pyrazole-5-carboxamide]: at least 7.00; for `C[S@](=N)(=O)c1cccc(NC(=O)c2c(C(F)(F)F)c(C3(F)CC3)nn2CC2C[C@H]2C(F)(F)F)c1` (single isomer, unassigned) [Example 134d, 3-(1-Fluorocyclopropyl)-N-(3-(S-methylsulfonimidoyl)phenyl)-4-(trifluoromethyl)-1-(((trans)-2-(trifluoromethyl)cyclopropyl)methyl)-1H-pyrazole-5-carboxamide]: at least 7.00; for `CC1(Cn2nc(C3(F)CC3)c(C(F)F)c2C(=O)Nc2cccc(S(C)(=N)=O)c2)CC(F)(F)C1` (single isomer, unassigned) [Example 135a, 1-((3,3-Difluoro-1-methylcyclobutyl)methyl)-4-(difluoromethyl)-3-(1-fluorocyclopropyl)-N-(3-(S-methylsulfonimidoyl)phenyl)-1H-pyrazole-5-carboxamide]: at least 7.00.
To `CC1(Cn2nc(C3(F)CC3)c(C(F)F)c2C(=O)Nc2cccc(S(C)(=N)=O)c2)CC(F)(F)C1` (single isomer, unassigned) [Example 135b, 1-((3,3-Difluoro-1-methylcyclobutyl)methyl)-4-(difluoromethyl)-3-(1-fluorocyclopropyl)-N-(3-(S-methylsulfonimidoyl)phenyl)-1H-pyrazole-5-carboxamide] belongs at least 7.00.
Regarding `CS(=N)(=O)c1cc(NC(=O)c2c(C(F)(F)F)c(C3CC3)nn2CC2C(F)(F)C23CCC3)ccn1` (single isomer, unassigned) [Example 136a, 3-Cyclopropyl-1-((2,2-difluorospiro[2.3]hexan-1-yl)methyl)-N-(2-(S-methylsulfonimidoyl)pyridin-4-yl)-4-(trifluoromethyl)-1H-pyrazole-5-carboxamide], the pIC50 is at least 7.00.
To `CS(=N)(=O)c1cc(NC(=O)c2c(C(F)(F)F)c(C3CC3)nn2CC2C(F)(F)C23CCC3)ccn1` (single isomer, unassigned) [Example 136b, 3-Cyclopropyl-1-((2,2-difluorospiro[2.3]hexan-1-yl)methyl)-N-(2-(S-methylsulfonimidoyl)pyridin-4-yl)-4-(trifluoromethyl)-1H-pyrazole-5-carboxamide] belongs at least 7.00; to `CS(=N)(=O)c1cc(NC(=O)c2c(C(F)(F)F)c(C3CC3)nn2CC2C(F)(F)C23CCC3)ccn1` (single isomer, unassigned) [Example 136c, 3-Cyclopropyl-1-((2,2-difluorospiro[2.3]hexan-1-yl)methyl)-N-(2-(S-methylsulfonimidoyl)pyridin-4-yl)-4-(trifluoromethyl)-1H-pyrazole-5-carboxamide], at least 7.00; to `CS(=N)(=O)c1cc(NC(=O)c2c(C(F)(F)F)c(C3CC3)nn2CC2C(F)(F)C23CCC3)ccn1` (single isomer, unassigned) [Example 136d, 3-Cyclopropyl-1-((2,2-difluorospiro[2.3]hexan-1-yl)methyl)-N-(2-(S-methylsulfonimidoyl)pyridin-4-yl)-4-(trifluoromethyl)-1H-pyrazole-5-carboxamide], at least 7.00.
The same measure for `CC1(Cn2nc(C34CC(C3)C4)c(C(F)F)c2C(=O)Nc2ccnc(S(C)(=N)=O)c2)CC(F)(F)C1` (single isomer, unassigned) [Example 137a, 3-(Bicyclo[1.1.1]pentan-1-yl)-1-((3,3-difluoro-1-methylcyclobutyl)methyl)-4-(difluoromethyl)-N-(2-(S-methylsulfonimidoyl)pyridin-4-yl)-1H-pyrazole-5-carboxamide]: at least 7.00.
The same measure for `CC1(Cn2nc(C34CC(C3)C4)c(C(F)F)c2C(=O)Nc2ccnc(S(C)(=N)=O)c2)CC(F)(F)C1` (single isomer, unassigned) [Example 137b, 3-(Bicyclo[1.1.1]pentan-1-yl)-1-((3,3-difluoro-1-methylcyclobutyl)methyl)-4-(difluoromethyl)-N-(2-(S-methylsulfonimidoyl)pyridin-4-yl)-1H-pyrazole-5-carboxamide]: at least 7.00.
In the case of `CC1(Cn2nc(C34CC(F)(C3)C4)c(C(F)F)c2C(=O)Nc2ccc(F)c(S(C)(=N)=O)c2)CC(F)(F)C1` (single isomer, unassigned) [Example 138a, 1-((3,3-Difluoro-1-methylcyclobutyl)methyl)-4-(difluoromethyl)-N-(4-fluoro-3-(S-methylsulfonimidoyl)phenyl)-3-(3-fluorobicyclo[1.1.1]pentan-1-yl)-1H-pyrazole-5-carboxamide], the pIC50 was at least 7.00.
To `CC1(Cn2nc(C34CC(F)(C3)C4)c(C(F)F)c2C(=O)Nc2ccc(F)c(S(C)(=N)=O)c2)CC(F)(F)C1` (single isomer, unassigned) [Example 138b, 1-((3,3-Difluoro-1-methylcyclobutyl)methyl)-4-(difluoromethyl)-N-(4-fluoro-3-(S-methylsulfonimidoyl)phenyl)-3-(3-fluorobicyclo[1.1.1]pentan-1-yl)-1H-pyrazole-5-carboxamide] belongs at least 7.00.
